Data published in paper PMC11378297, “Discovery and Profiling of New Multimodal Phenylglycinamide Derivatives as Potent Antiseizure and Antinociceptive Drug Candidates” (ACS Chemical Neuroscience, 2024).
Where two headings read alike, the source gives them in different places.

Assay: pharmacokinetic study in mice (serum and brain, non-compartmental analysis)
Type: in vivo, mouse
Conditions: for Kp / MRT / Tmax / half-life / k el / CL/F / Vd/F: male, CD-1, mouse; for Kp: brain and serum, read-out: Brain-to-serum AUC ratio; for half-life: read-out: t1/2 λz; for k el: read-out: λz (converted); for Vd/F: read-out: Vz/F
Procedure: They were housed in conditions of constant temperature with the 12:12 h light–dark cycle and free access to food and water. […] Moreover, the compound was dissolved in a mixture of DMSO/PEG400/water (1:4:5, v/v/v) and administered p.o. at a dose of 25 mg/kg. […] After allowing the blood to coagulate for 20 min at room temperature, the serum was separated using a 5000g Eppendorf miniSpin centrifuge (Germany) for 10 min. Samples were kept at −80 °C until they were analyzed. The First Ethical Committee on Animal Experimentation in Kraków granted approval for all animal treatments (license no. 270/2019). Concentrations of compound (R)-32 in mouse serum and brain tissue were measured using a liquid chromatography tandem mass spectrometry method (LC-MS/MS). Mouse brains were homogenized in distilled water at the ratio of 1:4 (w/v) using the ULTRA-TURRAX T10 basic tissue homogenizer (IKA, Germany). […] Samples were shaken for 10 min (IKA Vibrax VXR, Germany) and then centrifuged for 5 min at the speed of 8000g (Eppendorf miniSpin centrifuge, Germany). Supernatants were transferred into the autosampler vials, and a sample volume of 1 μL was injected into the LC-MS/MS system. Liquid chromatography was performed on an Exion LC AC HPLC system (Sciex, USA) with a Hypersil Gold C18 analytical column (3 × 50 mm, 5 μm, Thermo Scientific, USA). […] The initial mobile phase composition was 95% B and 5% A for the first 2 min with a linear gradient to 5% B in the next 2 min and then isocratic mode for 2 min with the following rapid change back to 95% B in 0.1 min. The remaining time of elution was set at 95% B. The whole HPLC operation lasted 10 min, and the flow rate was set to 0.4 mL/min. A QTRAP 4500 mass spectrometer (Sciex, USA) equipped with an ESI source, was used for detection. The mass spectrometric parameters were optimized to obtain maximum sensitivity at unit resolution. The ion source temperature was maintained at 450 °C, and the ion spray voltage was set to 5500 V. The CUR was set to 40 psi and the collision gas (CAD) to medium. The MRM experiments were conducted in the positive ion mode by monitoring the precursor to product ion transitions from m/z 422 to 247 (CE = 25 eV) and from m/z 422 to 106 (CE = 57 eV) for compound (R)-32 and from m/z 436 to 207 (CE = 42 eV) for IS. The working solutions for (R)-32 were created in methanol, while the stock solution was made in DMSO at a concentration of 1 mg/mL. […] Two distinct calibration curves were created for serum samples, one for greater concentrations and one for lower amounts. The precipitating agent was also diluted 10 times with calibrators and samples from the highest concentration range. […] The limits used for quantification were 0.001 to 5, 0.1 to 20 μg/mL for serum, and 0.005 to 25 μg/g for brain tissue. Samples with (R)-32 concentrations higher than the quantitative upper limit were 10-fold diluted using the blank matrix, which is either serum or brain homogenate. The method’s precision and accuracy fell within the bounds established by the FDA’s standards for the verification of bioanalytical techniques. During the normal analysis of the samples, no substantial matrix effect was identified, and no stability issues were encountered. The Analyst program version 1.7 was utilized for both data collecting and analysis. Noncompartmental analysis was used to estimate pharmacokinetic parameters of (R)-32 in serum and brain tissue. The area under the mean concentration versus time curve extrapolated to infinity (AUC0-inf) was estimated using the linear trapezoidal rule by combining trapezoid calculation of AUC0–t and the area extrapolated to infinity. The MRT was calculated from AUMC0-inf/AUC0-inf, where AUMC0-inf was estimated by calculation of the total area under the first-moment curve. The terminal slope (λz) was calculated by log–linear regression of the drug concentration versus time data in the terminal phase and the terminal half-life (t0.5) was calculated as 0.693/λz. […]

CC(=O)N[C@@H](C(=O)N1CCN(c2cccc(OC(F)(F)F)c2)CC1)c1ccccc1 [(R)-32, (R)-N-(2-Oxo-1-phenyl-2-(4-(3-(trifluoromethoxy)phenyl)piperazin-1-yl)ethyl)acetamide]
MRT after p.o. dosing in comparison to i.p. administration: ~4 fold
ratios of Cmax and AUC in serum after p.o. dosing compared to i.p. administration of the same dose (25 mg/kg): lower than 0.5
AUC0–∞ (brain, 25 mg/kg i.p.): 274,802.60 ng·min/mL(g)
Cmax (brain, 25 mg/kg i.p.): 8266.67 ng/mL(g)
AUC0–∞ (brain, 25 mg/kg p.o.): 156,252.29 ng·min/mL(g)
Cmax (brain, 25 mg/kg p.o.): 1870.33 ng/mL(g)
AUC0–∞ (brain, 50 mg/kg i.p.): 689,733.29 ng·min/mL(g)
Cmax (brain, 50 mg/kg i.p.): 21,475.00 ng/mL(g)
Kp (intraperitoneal, 50 mg/kg): 1.5
Kp (ip, 25 mg/kg i.p.): 1.2
Kp (po, 25 mg/kg p.o.): 1.3
MRT (ip, brain, 25 mg/kg i.p.): 45.5 min
Tmax (ip, brain, 25 mg/kg i.p.): 15 min
half-life (ip, brain, 25 mg/kg i.p.): 80.5 min
k el (ip, brain, 25 mg/kg i.p.): 0.00015 s⁻¹
MRT (ip, brain, 50 mg/kg i.p.): 47.3 min
Tmax (ip, brain, 50 mg/kg i.p.): 15 min
half-life (ip, brain, 50 mg/kg i.p.): 62.3 min
k el (ip, brain, 50 mg/kg i.p.): 0.000183 s⁻¹
CL/F (ip, serum, 25 mg/kg i.p.): 110 mL/min/kg
MRT (ip, serum, 25 mg/kg i.p.): 42.3 min
Tmax (ip, serum, 25 mg/kg i.p.): 15 min
Vd/F (ip, serum, 25 mg/kg i.p.): 12.3 L/kg
half-life (ip, serum, 25 mg/kg i.p.): 77.5 min
k el (ip, serum, 25 mg/kg i.p.): 0.00015 s⁻¹
CL/F (ip, serum, 50 mg/kg i.p.): 108 mL/min/kg
MRT (ip, serum, 50 mg/kg i.p.): 33.6 min
Tmax (ip, serum, 50 mg/kg i.p.): 15 min
Vd/F (ip, serum, 50 mg/kg i.p.): 9.97 L/kg
half-life (ip, serum, 50 mg/kg i.p.): 64.3 min
k el (ip, serum, 50 mg/kg i.p.): 0.000183 s⁻¹
MRT (po, brain, 25 mg/kg p.o.): 151 min
Tmax (po, brain, 25 mg/kg p.o.): 5 min
half-life (po, brain, 25 mg/kg p.o.): 133 min
k el (po, brain, 25 mg/kg p.o.): 8.33e-05 s⁻¹
CL/F (po, serum, 25 mg/kg p.o.): 210 mL/min/kg
MRT (po, serum, 25 mg/kg p.o.): 156 min
Tmax (po, serum, 25 mg/kg p.o.): 5 min
Vd/F (po, serum, 25 mg/kg p.o.): 38.5 L/kg
half-life (po, serum, 25 mg/kg p.o.): 127 min
k el (po, serum, 25 mg/kg p.o.): 8.33e-05 s⁻¹
Tmax (serum, other: both i.p. and p.o., after both i.p. and p.o. dosing): ≤ 15 min
AUC0–∞ (serum, 25 mg/kg i.p.): 228,063.48 ng·min/mL(g)
Cmax (serum, 25 mg/kg i.p.): 7613.33 ng/mL(g)
AUC0–∞ (serum, 25 mg/kg p.o.): 118,998.11 ng·min/mL(g)
Cmax (serum, 25 mg/kg p.o.): 1266.00 ng/mL(g)
AUC0–∞ (serum, 50 mg/kg i.p.): 464,877.54 ng·min/mL(g)
Cmax (serum, 50 mg/kg i.p.): 15,900.00 ng/mL(g)
